Data on 18 substances can be found in US11214803B2, “Modulators of YAP1 expression” (Ionis Pharmaceuticals, Inc., priority 2019, dated 2022).

Strand notation (5' to 3'): a small letter for the sugar, then the base; units joined by * are phosphorothioate-linked, units joined directly phosphodiester-linked; [ ] holds rarer units or linkages, { } end groups; capitals alone tell only the bases. k = constrained ethyl (cEt); [5mC] = 5-methylcytosine; d = 2'-deoxy (DNA); m = 2'-O-methyl

Common to all, as to assay type: cell-based
The test system of data set [1] is Yap1 mRNA. Briefly: Dose-dependent inhibition of human Yap1 in A-431 cells (Example 7, 10,000 cells per well, RTS36584). Particulars: free uptake; for Yap1 mRNA, % UTC: A-431 cells 10,000 cells per well, 48 hours. How it is done: Modified oligonucleotides described in the studies above were tested at various doses in A-431 cells. Cultured A-431 cells at a density of 10,000 cells per well were treated using free uptake with modified oligonucleotides diluted to concentrations described in the tables below. After approximately 48 hours, Yap1 mRNA levels were measured as previously described using the Human Yap1 primer-probe set RTS36584. Yap1 mRNA levels were normalized to total RNA content, as measured by RIBOGREEN®. Results are presented in the tables below as percent control of the amount of Yap1 mRNA relative to untreated control cells (% UTC). IC50s were calculated using a linear regression on a log/linear plot of the data in excel.

Data set [2] concerns Yap1 mRNA. Put plainly: Dose-dependent inhibition of human Yap1 in A-431 cells (Example 8, 10,000 cells per well, RTS4814). Particulars: free uptake, approximately 48 hours, RTS4814; for Yap1 mRNA, % UTC: A-431 cells, 10,000 cells per well; for IC50: A-431 cells, linear regression on log/linear plot. The procedure, abridged:
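A-431 cells (10,000/well) dosed with modified oligonucleotides by free uptake; Yap1 mRNA measured ~48 h later with primer-probe set RTS4814, normalized to total RNA (RIBOGREEN). Values are % of untreated control; IC50 from linear regression on log/linear plot.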

In data set [3] the test system is Yap1 mRNA. Briefly: Dose-dependent inhibition of human Yap1 in SNU-449 cells (Example 9, RTS36584). Particulars: free uptake; for % UTC (Yap1 mRNA): approximately 48 hours; for IC50: linear regression on a log/linear plot. In a few lines: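 SNU-449 cells (10,000/well) took up modified oligonucleotides by free uptake at a range of doses for about 48 h. Yap1 mRNA was quantified with primer-probe set RTS36584, normalised to RIBOGREEN total RNA and expressed as % untreated control; IC50 from linear regression on log/linear plot.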

Data set [4] deals with Yap1 mRNA. Put plainly: Antisense inhibition of human Yap1 in A-431 cells by cEt gapmers, single dose (Example 3, RTS36584). To be noted: Table 28; Yap1 mRNA as percent of untreated control; 3-10-3 cEt gapmers targeting SEQ ID NO.: 1, and 2. The procedure, abridged: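 Single-dose free-uptake screen of 3-10-3 cEt gapmers in A-431 cells at 2,000 nM over about 48 h. Values are % untreated control Yap1 mRNA.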

[5] abbreviates: Table 56, A-431 cells 10,000 cells per well.
The mark [6] stands for this setting: Table 57, A-431 cells 10,000 cells per well.
The mark [7] stands for this setting: Table 58, A-431 cells 10,000 cells per well.

In the case of “958356 (antisense kT*kT*kG*dA*dA*dG*dA*dA*dG*dG*dA*dG*dT*k[5mC]*kG*kG) [compound 958356]”, the “Yap1 mRNA, % UTC” value in the data set on Yap1 mRNA [1] (Table 56, 15.6 nM) was 84 % UTC; with Yap1 mRNA [1] (Table 56, 62.5 nM) it was 79 % UTC; with Yap1 mRNA [1] (Table 56, 4000.00 nM), 21 % UTC. In the data set on Yap1 mRNA [1] (setting [5]), this substance gave an IC50 of 180 nM.
For the substance “958361 (antisense kG*k[5mC]*kT*d[5mC]*dG*dA*dA*d[5mC]*dA*dT*dG*d[5mC]*dT*kG*kT*kG) [compound 958361]”, the “Yap1 mRNA, % UTC” value in the data set on Yap1 mRNA [1] (Table 56, 15.6 nM) amounted to 100 % UTC; with Yap1 mRNA [1] (Table 56, 62.5 nM) it was 80 % UTC; in the data set with Yap1 mRNA [1] (Table 56, 4000.00 nM), 22 % UTC. The substance also returned an IC50 with Yap1 mRNA [1] (setting [5]) of 220 nM.
The matching figures for “958369 (antisense kT*kT*kA*dT*d[5mC]*dT*dA*dG*d[5mC]*dT*dT*dG*dG*kT*kG*kG) [compound 958369]”: 107 % UTC, 68 % UTC, 17 % UTC and 170 nM.
With “958370 (antisense k[5mC]*kT*kT*dT*dA*dT*d[5mC]*dT*dA*dG*d[5mC]*dT*dT*kG*kG*kT) [compound 958370]”, the “Yap1 mRNA, % UTC” value is 98 % UTC with Yap1 mRNA [1] (Table 56, 15.6 nM); 74 % UTC in the data set on Yap1 mRNA [1] (Table 56, 62.5 nM); 22 % UTC in the data set on Yap1 mRNA [1] (Table 56, 4000.00 nM). This substance came in with an IC50 in the data set on Yap1 mRNA [1] (setting [5]) of 200 nM.
The matching figures for “958373 (antisense kA*kG*kG*dT*dG*d[5mC]*dT*dA*dG*d[5mC]*dT*dG*dG*kT*kG*k[5mC]) [compound 958373]”: 72 % UTC, 45 % UTC, 17 % UTC and 50 nM.
In the same order, the values of “958377 (antisense kG*k[5mC]*kT*dG*dG*dG*dA*dT*dT*dG*dA*dT*dA*kT*kT*k[5mC]) [compound 958377]” are 90 % UTC, 60 % UTC, 17 % UTC and 130 nM.
The matching figures for “958403 (antisense k[5mC]*kA*kG*dT*dT*dT*dA*dT*dG*dT*dA*dG*dT*kA*kG*kT) [compound 958403]”: 94 % UTC, 63 % UTC, 12 % UTC and 120 nM.
Consider “958451 (antisense k[5mC]*kA*k[5mC]*dG*dA*dT*d[5mC]*dT*dG*dA*dT*dG*d[5mC]*k[5mC]*k[5mC]*kG) [compound 958451]”, for which the “Yap1 mRNA, % UTC” value is recorded as 98 % UTC with Yap1 mRNA [1] (Table 57, 15.6 nM); 74 % UTC in the data set on Yap1 mRNA [1] (Table 57, 62.5 nM); 23 % UTC in the data set with Yap1 mRNA [1] (Table 57, 4000.00 nM). The substance further had an IC50 with Yap1 mRNA [1] (setting [6]) of 200 nM.
For “958457 (antisense kG*kT*k[5mC]*dG*dA*dA*dG*dA*dT*dG*d[5mC]*dT*dG*kA*kG*k[5mC]) [compound 958457]”, the “Yap1 mRNA, % UTC” value with Yap1 mRNA [1] (Table 58, 15.6 nM) came to 91 % UTC; in the data set on Yap1 mRNA [1] (Table 58, 62.5 nM) it was 50 % UTC; with Yap1 mRNA [1] (Table 58, 4000.00 nM) it was 13 % UTC. The IC50 with Yap1 mRNA [1] (setting [7]) turned out to be 100 nM.
Turning to “958466 (kG*kT*k[5mC]*dA*dT*dT*dA*dA*dG*dG*dA*dT*dG*kT*k[5mC]*kA; antisense) [compound 958466]”, the “Yap1 mRNA, % UTC” value was determined as 84 % UTC in the data set on Yap1 mRNA [1] (Table 57, 15.6 nM); 81 % UTC in the data set on Yap1 mRNA [1] (Table 57, 62.5 nM); 30 % UTC in the data set with Yap1 mRNA [1] (Table 57, 4000.00 nM). The IC50 with Yap1 mRNA [1] (setting [6]) is 300 nM.
Take “958472 (kT*k[5mC]*k[5mC]*dT*dT*dA*dG*dA*dT*d[5mC]*d[5mC]*dT*dT*k[5mC]*kA*k[5mC]; antisense) [compound 958472]”: the “Yap1 mRNA, % UTC” value in the data set with Yap1 mRNA [1] (Table 58, 15.6 nM) is reported as 92 % UTC; in the data set on Yap1 mRNA [1] (Table 58, 62.5 nM) it was 63 % UTC; in the data set with Yap1 mRNA [1] (Table 58, 4000.00 nM) it was 23 % UTC. Moreover, the IC50 in the data set on Yap1 mRNA [1] (setting [7]) is 200 nM.
For the substance “958473 (kG*kT*k[5mC]*dT*d[5mC]*d[5mC]*dT*dT*dA*dG*dA*dT*d[5mC]*k[5mC]*kT*kT; antisense) [compound 958473]”, the “Yap1 mRNA, % UTC” value in the data set with Yap1 mRNA [1] (Table 60, 15.6 nM) is 85 % UTC; in the data set with Yap1 mRNA [1] (Table 60, 62.5 nM), 60 % UTC; in the data set with Yap1 mRNA [1] (Table 60, 4000.00 nM), 17 % UTC. This substance gave an IC50 in the data set with Yap1 mRNA [1] (Table 60, A-431 cells 10,000 cells per well) of 100 nM.
As to “1074464 (kT*kT*kA*dG*dA*dG*dT*dA*dT*dG*dT*dG*dG*k[5mC]*kA*kA) [compound 1074464]”, the “Yap1 mRNA, % UTC” value with Yap1 mRNA [2] (31.3 nM) is given as 25 % UTC; in the data set with Yap1 mRNA [2] (125.0 nM), 6 % UTC; in the data set on Yap1 mRNA [2] (500.0 nM), 3 % UTC; in the data set on Yap1 mRNA [2] (2000.00 nM), 3 % UTC. Moreover, the IC50 in the data set with Yap1 mRNA [2] was below 20 nM; in the data set on Yap1 mRNA [3], 200 nM. Further, the “% UTC (Yap1 mRNA)” value is recorded as 109 % UTC in the data set with Yap1 mRNA [3] (31.3 nM), 50 % UTC with Yap1 mRNA [3] (125.0 nM), 19 % UTC in the data set with Yap1 mRNA [3] (500.0 nM) and 6 % UTC with Yap1 mRNA [3] (2000.00 nM).
With “1074728 (antisense kT*kG*kA*dG*dG*dT*dA*dT*dA*dA*d[5mC]*dT*dG*kG*kG*k[5mC]) [compound 1074728]”, the “Yap1 mRNA, % UTC” value in the data set on Yap1 mRNA [2] (31.3 nM) is reported as 28 % UTC; with Yap1 mRNA [2] (125.0 nM), 7 % UTC; in the data set with Yap1 mRNA [2] (500.0 nM) it was 4 % UTC; in the data set on Yap1 mRNA [2] (2000.00 nM), 4 % UTC. The concentration for half-maximal inhibition (IC50) with Yap1 mRNA [2] is below 20 nM; with Yap1 mRNA [3], 100 nM. The “% UTC (Yap1 mRNA)” value with Yap1 mRNA [3] (31.3 nM) was 69 % UTC; in the data set on Yap1 mRNA [3] (125.0 nM) it was 45 % UTC; with Yap1 mRNA [3] (500.0 nM), 19 % UTC; in the data set on Yap1 mRNA [3] (2000.00 nM), 8 % UTC.
For “1074798 (kG*k[5mC]*kT*dT*dT*dG*dG*dA*dA*dG*dA*dT*d[5mC]*kT*kG*kA) [compound 1074798]”, the “Yap1 mRNA, % UTC” value with Yap1 mRNA [2] (31.3 nM) is on record as 34 % UTC; in the data set with Yap1 mRNA [2] (125.0 nM) it was 12 % UTC; in the data set on Yap1 mRNA [2] (500.0 nM), 5 % UTC; in the data set with Yap1 mRNA [2] (2000.00 nM), 6 % UTC. In addition, the values for the IC50 in the data set with Yap1 mRNA [2] and with Yap1 mRNA [3] were below 20 nM and 100 nM, respectively. The “% UTC (Yap1 mRNA)” value with Yap1 mRNA [3] (31.3 nM) is 62 % UTC; in the data set on Yap1 mRNA [3] (125.0 nM) it was 38 % UTC; in the data set with Yap1 mRNA [3] (500.0 nM) it was 17 % UTC; with Yap1 mRNA [3] (2000.00 nM) it was 8 % UTC. For the same substance, the “YAP1 (% UTC)” value with Yap1 mRNA [4] was determined as 4 % UTC.
For “1200860 (kT*kA*kA*dA*dG*mU*dG*dT*dA*dT*dG*dT*d[5mC]*kA*kG*kA; antisense) [compound 1200860]”, the “% UTC (Yap1 mRNA)” value came to 59 % UTC in the data set with Yap1 mRNA [3] (31.3 nM), 35 % UTC with Yap1 mRNA [3] (125.0 nM), 15 % UTC with Yap1 mRNA [3] (500.0 nM) and 5 % UTC in the data set on Yap1 mRNA [3] (2000.00 nM). In the data set with Yap1 mRNA [3], this substance returned an IC50 of 50 nM.
In the same order, the values of “1200861 (kT*kT*kA*dA*dA*mG*dT*dG*dT*dA*dT*dG*dT*k[5mC]*kA*kG; antisense) [compound 1200861]” are 74 % UTC, 43 % UTC, 17 % UTC, 4 % UTC and 100 nM.
On to “1200862 (kT*kT*kT*dA*dA*mA*dG*dT*dG*dT*dA*dT*dG*kT*k[5mC]*kA; antisense) [compound 1200862]”, for which the “% UTC (Yap1 mRNA)” value in the data set on Yap1 mRNA [3] (31.3 nM) amounted to 88 % UTC; in the data set with Yap1 mRNA [3] (125.0 nM) it was 64 % UTC; with Yap1 mRNA [3] (500.0 nM), 35 % UTC; in the data set with Yap1 mRNA [3] (2000.00 nM) it was 13 % UTC. Also, the IC50 in the data set on Yap1 mRNA [3] turned out to be 200 nM.
